Data taken from US20240116875A1, “RATIONAL DESIGN, OPTIMIZATION, AND BIOLOGICAL EVALUATION OF NOVEL MEK4 INHIBITORS AGAINST PANCREATIC ADENOCARCINOMA” (NORTHWESTERN UNIVERSITY, priority 2022, published 2024).
“Also recorded” adds a separate entry of the source. Where two headings read alike, the source gives them in different places.

What was measured:
[1] = target: Cot (Homo sapiens, UniProt P41279); conditions: cited from earlier work
[2] = target: T1, MEK7 (Homo sapiens, UniProt O14733); assay: ADP-Glo kinase activity assay, MEK7; assay type: biochemical
T1 construct: purchased Carna Biosciences
T1 sequence (O14733 1-419): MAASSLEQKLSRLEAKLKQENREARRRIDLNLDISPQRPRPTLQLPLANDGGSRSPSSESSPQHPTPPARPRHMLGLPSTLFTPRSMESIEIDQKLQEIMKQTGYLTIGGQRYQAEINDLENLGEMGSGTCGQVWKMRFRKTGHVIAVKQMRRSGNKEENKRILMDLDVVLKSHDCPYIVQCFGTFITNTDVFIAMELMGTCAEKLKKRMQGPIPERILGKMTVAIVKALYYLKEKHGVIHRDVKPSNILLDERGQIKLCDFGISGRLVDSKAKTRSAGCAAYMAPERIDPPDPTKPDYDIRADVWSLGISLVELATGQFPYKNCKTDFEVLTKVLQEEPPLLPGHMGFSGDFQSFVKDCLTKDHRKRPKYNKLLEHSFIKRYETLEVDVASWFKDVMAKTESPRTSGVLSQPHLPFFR
Experimental: The compounds were then evaluated both in vitro and in a cellular system. When studying kinase inhibitors, there are a multitude of ways to evaluate selectivity across kinases.
Procedure for a 5 μL Kinase reaction using the ADP-Glo Kinase Assay Kit from Promega. Staurosporine was used as the positive control, and DMSO as the negative control. Activity of recombinant active full-length human MEK4 (Carna Biosciences) was measured using the ADP-Glo assay with recombinant full-length human p38α (MAPK14). Kinase reactions with MEK7 (Carna Biosciences) were done at the same concentration and amounts with recombinant full-length human p38α (MAPK14).
For each well, 4 ng of MEK4 and 600 ng of p38α in Kinase buffer (CST) were used, and 1 μL of this mixture was dispensed per well.
Inhibitor was prepared in a DMSO solution. A dose response dilution was done in a 384-well Echo transfer plate. […] This mixture was allowed to incubate for 30 minutes at room temperature.
Using a Mantis, 1 μL, of an 8 μM ATP solution was added to each well, and the plate was allowed to incubate for another 1 hour at room temperature. […] All experiments were done in triplicate on the plate, and at least in one separate technical duplicate.

[3] = Log D study (BioDuro-Sundia); conditions: pH of 7.4
[4] = liver microsome stability study (BioDuro-Sundia)
[5] = PAMPA assay (BioDuro-Sundia); assay type: in vitro ADME
[6] = tested on: Caco-2; assay: Caco-2 permeability assay; assay type: in vitro ADME
[7] = tested on: JNK phosphorylation in HEK293T cells; assay: anisomycin-induced JNK phosphorylation, western blotting, HEK293T; assay type: cell-based, human; conditions: anisomycin 45 minutes then compound 5 hours, increasing doses
Experimental: The blots are representative of at least three biological replicates.
(§1) We also examined the effects of these inhibitors on JNK phosphorylation and proliferation of two pancreatic cancer cell lines (CD18 and MiaPaCa2).
(§2) Human pancreatic cancer cell lines (CD18/HPAF-II and MiaPaCa2) and HEK293T cells were obtained from American Type Culture Collection. All cell lines were cultured according to the manufacturer's protocol. All media contained 10% Fetal Bovine Serum (FBS) and antibiotics (100 U/mL Penicillin and 100 μg/mL Streptomycin).
(§3) Whole cell extracts of cultured cells were prepared in radioimmunoprecipitation (RIPA) lysis buffer supplemented with phosphatase and protease inhibitors (Calbiochem). Protein concentration was determined by the bicinchoninic acid assay (BCA) (ThermoFisher) and separated by the SDS-PAGE technique. […] Secondary anti-mouse IgG (A4416) and anti-rabbit IgG (A6667) antibodies were purchased from Sigma-Aldrich and used a 1:4000 dilution. Images of blots were acquired on HyBlot ES Autoradiography Film (Thomas Scientific, Swedesboro, NJ, USA) following incubation with SuperSignal West Pico PLUS (ThermoFisher).

[8] = tested on: JNK phosphorylation in CD18 cells; assay: anisomycin-induced JNK phosphorylation, western blotting, CD18; assay type: cell-based, human; conditions: CD18, anisomycin 45 minutes then compound 5 hours
Experimental: (§4) HSP90 was used as loading control. The blots are representative of at least three biological replicates.
as §1, §2, §3

[9] = tested on: JNK phosphorylation in MiaPaCa2 cells; assay: anisomycin-induced JNK phosphorylation, western blotting, MiaPaCa2; assay type: cell-based, human; conditions: MiaPaCa2, anisomycin 45 minutes then compound 5 hours
Experimental: as §4, §1, §2, §3

[10] = tested on: HEK293T cells; assay: cell proliferation (cell count after 72 hours), HEK293T; assay type: cell-based, human; conditions: varying doses
Experimental: After 72 hours, cells were trypsinized, counted, and the cell numbers were normalized against the DMSO treatment. Mean±SD. Graphs are representative of 3 biological replicates. One-way ANOVA; ns, non-significant **, p<0.01 ***, p<0.001.
as §1, §2

[11] = tested on: CD18 cells; assay: cell proliferation (cell count after 72 hours), CD18; assay type: cell-based, human; conditions: CD18, 72 hours, varying doses, single agent
Experimental: (§5) After 72 hours, cells were trypsinized, counted, and the cell numbers were normalized against the DMSO treatment. Mean±SD. Graphs are representative of 3 biological replicates.
as §5
(§6) Cell numbers from different treatments were normalized against the DMSO treatment, and CDI is calculated as follows: CDI=AB/(A×B), with AB being the ratio of the combination groups to control group and A or B being the ratio of the single agent group to the DMSO group. Mean±SEM from 3 biological replicates.
as §1, §2

[12] = tested on: MiaPaCa2 cells; assay: cell proliferation (cell count after 72 hours), MiaPaCa2; assay type: cell-based, human; conditions: MiaPaCa2, 72 hours, varying doses, single agent
Experimental: as §5, §5, §6, §1, §2

[13] = tested on: MEK7 expression in HEK293T cells; assay: MEK7 expression, western blotting, HEK293T; assay type: cell-based, human; conditions: anisomycin pretreatment, compound 100 μM, 5 hours
Experimental: as §4
(§7) We next evaluated the effects of our inhibitors on the phosphorylation activity and expression of MEK1/2, MEK3/6, and MEK7. […] We also evaluated the effects on p42/44 MAPK (ERK1/2), which functions downstream of MEK1/2.
as §3

[14] = tested on: phospho-p38 MAPK in HEK293T cells; assay: p38 MAPK phosphorylation, western blotting, HEK293T; assay type: cell-based, human
Experimental: as §4, §7, §3

[15] = tested on: phospho-p42/44 MAPK in HEK293T cells; assay: p42/44 MAPK (ERK1/2) phosphorylation, western blotting, HEK293T; assay type: cell-based, human
Experimental: as §4, §7, §3

[16] = tested on: phospho-p42/44 MAPK in CD18 cells; assay: p42/44 MAPK phosphorylation, western blotting, CD18; assay type: cell-based, human
Experimental: (§8) The effects of different treatments on phospho-p42/44 MAPK and total p42/44 MAPK expression levels were determined by western blotting. HSP90 was used as loading control. The blots are representative of at least three biological replicates.
as §3

[17] = tested on: phospho-p42/44 MAPK in MiaPaCa2 cells; assay: p42/44 MAPK phosphorylation, western blotting, MiaPaCa2; assay type: cell-based, human
Experimental: as §8, §3

[18] = target: CYP 1A2 (Homo sapiens, UniProt P05177)
Sequence of CYP 1A2 (P05177 whole entry): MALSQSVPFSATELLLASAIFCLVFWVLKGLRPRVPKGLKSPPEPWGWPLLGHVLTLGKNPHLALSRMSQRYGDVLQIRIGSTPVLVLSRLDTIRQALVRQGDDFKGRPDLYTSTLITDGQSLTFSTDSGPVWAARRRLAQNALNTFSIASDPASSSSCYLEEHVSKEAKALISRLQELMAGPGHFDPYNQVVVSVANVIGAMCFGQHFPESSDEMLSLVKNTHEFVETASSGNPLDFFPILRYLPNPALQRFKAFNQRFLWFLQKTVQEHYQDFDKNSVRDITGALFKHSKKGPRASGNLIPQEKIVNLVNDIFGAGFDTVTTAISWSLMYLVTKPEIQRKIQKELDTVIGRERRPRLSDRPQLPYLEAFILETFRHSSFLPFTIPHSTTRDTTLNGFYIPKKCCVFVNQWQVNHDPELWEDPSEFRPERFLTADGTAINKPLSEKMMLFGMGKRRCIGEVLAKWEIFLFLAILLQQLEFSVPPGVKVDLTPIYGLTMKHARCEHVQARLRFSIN

[19] = target: CYP 2D6 (Homo sapiens, UniProt P10635); assay: CYP inhibition, 2D6
Sequence of CYP 2D6 (P10635 whole entry): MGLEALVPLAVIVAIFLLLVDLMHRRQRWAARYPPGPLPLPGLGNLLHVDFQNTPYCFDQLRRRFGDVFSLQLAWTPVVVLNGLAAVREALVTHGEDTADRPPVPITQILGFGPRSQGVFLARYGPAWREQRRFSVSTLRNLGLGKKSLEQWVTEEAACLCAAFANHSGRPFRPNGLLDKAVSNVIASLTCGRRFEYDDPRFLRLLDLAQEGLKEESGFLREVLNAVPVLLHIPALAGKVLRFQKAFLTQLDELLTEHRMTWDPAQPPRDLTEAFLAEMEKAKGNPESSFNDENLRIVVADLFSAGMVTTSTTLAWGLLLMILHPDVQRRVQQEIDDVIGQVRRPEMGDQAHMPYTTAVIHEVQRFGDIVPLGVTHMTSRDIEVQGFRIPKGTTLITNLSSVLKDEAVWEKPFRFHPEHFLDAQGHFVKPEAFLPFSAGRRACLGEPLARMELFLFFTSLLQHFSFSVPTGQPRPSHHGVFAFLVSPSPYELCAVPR

[20] = target: CYP 2C9 (Homo sapiens, UniProt P11712); assay: CYP inhibition, 2C9
Sequence of CYP 2C9 (P11712 whole entry): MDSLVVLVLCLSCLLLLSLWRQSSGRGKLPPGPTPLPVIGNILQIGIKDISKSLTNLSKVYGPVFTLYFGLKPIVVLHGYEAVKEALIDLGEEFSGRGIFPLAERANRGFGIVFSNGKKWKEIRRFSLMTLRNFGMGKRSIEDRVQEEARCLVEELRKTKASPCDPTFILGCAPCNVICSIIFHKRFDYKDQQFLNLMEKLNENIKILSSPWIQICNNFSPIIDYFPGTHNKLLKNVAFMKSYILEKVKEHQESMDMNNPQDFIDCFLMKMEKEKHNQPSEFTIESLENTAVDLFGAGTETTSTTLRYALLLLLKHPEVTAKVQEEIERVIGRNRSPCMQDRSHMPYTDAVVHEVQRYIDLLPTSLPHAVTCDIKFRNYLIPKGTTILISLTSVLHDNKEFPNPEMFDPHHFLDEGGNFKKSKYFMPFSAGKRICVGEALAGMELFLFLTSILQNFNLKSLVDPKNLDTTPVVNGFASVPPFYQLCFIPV

[21] = target: CYP 2C19 (Homo sapiens, UniProt P33261); assay: CYP inhibition, 2C19
Sequence of CYP 2C19 (P33261 whole entry, canonical isoform): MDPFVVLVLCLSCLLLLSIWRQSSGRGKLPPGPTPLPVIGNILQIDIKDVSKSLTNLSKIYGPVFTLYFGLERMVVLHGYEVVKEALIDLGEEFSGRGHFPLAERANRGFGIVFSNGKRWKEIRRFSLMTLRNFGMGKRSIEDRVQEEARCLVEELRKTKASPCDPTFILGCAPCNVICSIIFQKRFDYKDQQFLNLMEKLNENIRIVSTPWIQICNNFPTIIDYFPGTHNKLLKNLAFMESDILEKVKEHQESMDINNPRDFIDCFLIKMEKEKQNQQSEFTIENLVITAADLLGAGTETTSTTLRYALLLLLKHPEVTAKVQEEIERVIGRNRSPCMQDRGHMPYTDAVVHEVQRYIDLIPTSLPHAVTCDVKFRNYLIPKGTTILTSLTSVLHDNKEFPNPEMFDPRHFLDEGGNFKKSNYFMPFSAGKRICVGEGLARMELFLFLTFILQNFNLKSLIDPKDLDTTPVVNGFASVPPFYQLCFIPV

[22] = tested on: CYP isoforms 3A4/5; assay: CYP inhibition, 3A4/5
[23] = anisomycin pretreatment, compound 100 μM, 5 hours

Sequence of Cot (P41279 whole entry): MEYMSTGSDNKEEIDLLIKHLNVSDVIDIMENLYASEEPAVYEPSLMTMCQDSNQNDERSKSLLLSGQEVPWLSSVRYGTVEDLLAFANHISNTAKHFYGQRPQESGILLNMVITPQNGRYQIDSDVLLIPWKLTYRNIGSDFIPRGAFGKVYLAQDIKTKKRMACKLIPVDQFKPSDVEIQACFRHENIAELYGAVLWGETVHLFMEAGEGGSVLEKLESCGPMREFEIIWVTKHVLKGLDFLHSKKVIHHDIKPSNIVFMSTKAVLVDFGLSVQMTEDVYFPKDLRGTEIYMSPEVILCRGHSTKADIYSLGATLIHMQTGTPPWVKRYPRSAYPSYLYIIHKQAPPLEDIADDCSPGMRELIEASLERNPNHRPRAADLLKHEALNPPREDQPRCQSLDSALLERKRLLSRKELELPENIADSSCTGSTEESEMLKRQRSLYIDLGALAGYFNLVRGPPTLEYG

In the case of `O=c1c(-c2ccc(O)c(O)c2)coc2cc(O)ccc12` [THIF, 7,3′,4′-trihydroxyisoflavone], the “Cot activity (literature)” value [1] is given as “inhibits”.

`NS(=O)(=O)c1ccc(-c2n[nH]c3cc(F)ccc23)cc1` [Compound 10e, 4-(6-fluoro-1H-indazol-3-yl)benzenesulfonamide] showed an IC50 [2] of 0.52 ± 0.67 µM, an IC50 ([2]; headline value per compound, read-out: MEK7 IC50) of 0.54 µM and an IC50 ([2]; individual experiment, values in brackets, n=3, read-out: MEK7 IC50 of each experiment (IC50±SEM)) of 0.56 ± 0.22 µM. The “log D” value [3] was 2.80, the “half-life in the microsome assay” value ([4]; liver microsome) was 1.9 h and the “stability in the microsome assay” value ([4]; microsomes) was “good stability”. The “permeability in the PAMPA assay” value [5] was “performed slightly better”, the Caco-2 permeability [6] was “medium to high permeability” and the “effect on anisomycin-induced JNK phosphorylation” value [7] was “attenuated anisomycin-induced INK phosphorylation in a dose-dependent manner”. For the same compound, the “effect on anisomycin-induced JNK phosphorylation” value [8] was “attenuated anisomycin-induced JNK phosphorylation”, the “effect on anisomycin-induced JNK phosphorylation” value [9] was “attenuated anisomycin-induced JNK phosphorylation” and the cell proliferation [10] was “decreased. HEK293T cell proliferation in a dose-dependent manner”. The cell proliferation [11] was “decreased proliferation; also recorded: antiproliferative properties”, the cell proliferation [12] was “decreased proliferation; also recorded: antiproliferative properties” and the “effect on the expression of MEK7” value [13] was “no effect”. For the same compound, the “effect on anisomycin-induced p38 MAPK phosphorylation” value [14, 23] was “not affected”, the “effect on p42/44 MAPK phosphorylation after anisomycin” value [15, 23] was “reversed the effects of anisomycin” and the “effect on p42/44 MAPK phosphorylation” value ([16]; CD18, MEK4 inhibitor 10 μM, 5 hours) was “increased p42/44 MAPK phosphorylation”. The “effect on p42/44 MAPK phosphorylation” value ([17]; MiaPaCa2, MEK4 inhibitor 10 μM, 5 hours) was “did not induce p42/44 MAPK phosphorylation”, the “inhibition of CYP 1A2” value [18] was “inhibited” and the “inhibition of CYP 2D6” value [19] was “avoided inhibiting”. For the same compound, the “inhibition of CYP 2C9” value [20] was “avoided inhibiting”, the “inhibition of CYP 2C19” value [21] was “inhibited” and the “inhibition of CYP isoforms 3A4/5” value [22] was “did not inhibit”.

For `COc1ccc(C[C@H]2NC[C@H](O)[C@H]2OC(C)=O)cc1` [anisomycin, reference compound], the “effect of anisomycin on p38 MAPK phosphorylation” value ([14]; anisomycin alone) was “did induce phosphorylation” and the “effect of anisomycin on p42/44 MAPK phosphorylation” value ([15]; anisomycin alone) was “decreases p42/44 MAPK phosphorylation”.

With `N#CC(=C(/N)Sc1ccccc1N)/C(C#N)=C(\N)Sc1ccccc1N` [Compound U0126, reference compound] the “effect of U0126 co-treatment on p42/44 MAPK phosphorylation increased by 15o and 10e” value ([16]; CD18, U0126 1 μM or 5 μM, 1 hour pretreatment) was “suppressed” and the “effect of U0126 on p42/44 MAPK phosphorylation” value ([17]; MiaPaCa2, U0126 1 μM or 5 μM) was “decreased p42/44 MAPK phosphorylation”.
